# Experimental data reported in US20220233492A1, “METHOD OF PREVENTING OR TREATING POSTOPERATIVE PAIN” (priority 2019, published 2022).
# “Also recorded” adds a separate entry of the source.
# Assays:
# [1] = double-blinded, randomized preclinical studies with PK/PD correlation analyses; assay type: in vivo
# [2] = test system: healthy human subjects or subjects undergoing major surgeries; assay: safety in healthy human subjects or subjects undergoing major surgeries; assay type: in vivo
# [3] = test system: postoperative pain, subjects underwent laparoscopic colorectal surgery; assay: Example 1: postoperative IV infusion vs placebo after laparoscopic colorectal surgery; assay type: in vivo, human
# Experimental: Subjects who reported a pain intensity score of at least 4 on the NRS (0-10) after regaining consciousness in the post-anesthesia care unit (PACU) were enrolled in the study. The VVZ-149 group received an 8-hours IV infusion at a loading dose of 1.8 mg/kg for 0.5 h followed by a maintenance dose of 1.3 mg/kg/h for 7.5 h, and the placebo group received a placebo with the same dosing regimen. […] The primary-outcome measure, pain intensity, was evaluated using NRS (0-10) at the scheduled time points through 24 hours post-emergence. […] In rescued patients, anxiety was also highly correlated with both depression (r=0.285, p=0.041) and PCS score (r=0.334, p=0.016).
# [4] = test system: postoperative pain, subjects for an open elective abdominoplasty; assay: Example 2: IV infusion started before anesthesia induction vs placebo, open elective abdominoplasty; assay type: in vivo, human
# [5] = test system: postoperative pain, subjects for an elective bunionectomy; assay: Example 3: IV infusion after nerve block removal vs placebo, elective bunionectomy; assay type: in vivo, human
# Experimental: The primary-outcome measure, pain intensity, was evaluated using NRS (0-10) at the scheduled time points through 48 hours post-emergence. […] Subjects were given 2 stopwatches to start at the time of the start of the study drug infusion (T=0) and were instructed to stop the first stopwatch when “perceptible pain relief”, and the second stopwatch when “meaningful pain relief” is felt by the Time 12 hr.
# [6] = test system: postoperative pain, subjects underwent laparoscopic or robotic-assisted gastrectomy; assay: Example 4: intraoperative start IV infusion vs placebo, laparoscopic or robotic-assisted gastrectomy; assay type: in vivo, human; settings: for reduction of total amount of opioid consumed vs placebo: p<0.05
smiles,measurement,setting,value
"CCCCOc1c(OC)cc(C(=O)NCC2(N(C)C)CCOCC2)cc1OC [VVZ-149, 4-butoxy-N-((4-(dimethylamino)tetrahydro-2H-pyran-4-yl)methyl)-3,5-dimethoxybenzamide]",pain relief,[1],dose-dependent pain relief
same,sedative or adverse effects,[1],without significant sedative or adverse effects
same,anti-allodynic effect,[1]; versus morphine or gabapentin,comparable to morphine or gabapentin
same,clinically significant adverse events (AEs),[2],No clinically significant adverse events
same,pain intensity (NRS 0-10) vs placebo,"[3]; 8-hours IV infusion 1.8 mg/kg 0.5 h + 1.3 mg/kg/h […], through 24 hours post-emergence, FIG. 1",lower pain intensity
same,opioid consumption (hydromorphone via PCA and rescue) vs placebo,"[3]; all patients, FIG. 2",significant less opioid consumption
same,number of PCA demands vs placebo,"[3]; hydromorphone PCA, FIG. 3 and FIG. 4",significantly reduced the patients' need for postoperative analgesia; also recorded: significantly lower
same,pain intensity vs placebo subgroup,"[3]; subgroup of rescued patients (rescue hydromorphone in first 2 hours post-emergence), FIG. 7",reduced pain intensity
same,decrease in hydromorphone use compared to placebo,"[3]; subgroup of rescued patients, FIG. 7",40%
same,pain intensity vs placebo subgroup,"[3]; subgroup with severe postoperative pain (predose PI 7), FIG. 5a",significant lower pain intensity
same,hydromorphone (via PCA and/or rescue) requested and consumed vs placebo subgroup,"[3]; subgroup with severe postoperative pain (predose PI 7), FIG. 5b",less hydromorphone (via PCA and/or rescue) was requested and consumed
same,total amount of rescue opioid consumed vs placebo,"[4]; 0-6, 0-12, 0-24 hours, FIG. 9",significant lower
same,reduction of postoperative pain,"[4]; 10-hours IV infusion 160 mg 0.5 h + 840 mg 9.5 h, starting approx. 30 minutes before induction of anesthesia",opioid comparable reduction of postoperative pain
same,number of requests for rescue opioid vs placebo,"[4]; IV morphine rescue, 0-24 hours, FIG. 8",significant lower
same,proportion of opioid-free subjects vs placebo,"[4]; during the first 12 hours post-emergence, FIG. 10",higher proportion of subjects that are opioid-free
same,pain intensity (NRS 0-10) vs placebo,"[5]; 10-hours IV infusion 160 mg 0.5 h + 840 mg 9.5 h after nerve block removal, FIG. 16a",lower pain intensity
same,opioid consumption vs placebo,"[5]; IV morphine rescue, all patients",less opioid consumption
same,morphine requested and consumed vs placebo subgroup,"[5]; subgroup predose PI≥7, FIG. 17a, 17b",significant less morphine was requested and consumed
same,pain intensity vs placebo subgroup,"[5]; subgroup with severe postoperative pain, predose PI≥7, FIG. 16b",significant lower pain intensity
same,patients reporting perceptible pain relief,"[5]; within 30 minutes after the start of infusion, FIG. 18",More than 50%
same,mean NRS rest vs placebo,"[6]; 10 h IV infusion 1.8 mg/kg 0.5 h + 1.3 mg/kg/hr 9.5 h, significance at T=4 (p<0.05), FIG. 12",lower at any given timepoint through 24 hrs post-emergence except at T=24
same,opioid sparing (opioid consumed vs placebo),"[6]; for 10 hours post-emergence, p<0.01, FIG. 14",31.8%
same,number of PCA demand vs placebo,[6]; in vivo,significantly lessened at T=2 and T=10
same,reduction of total amount of opioid consumed vs placebo,"[6]; rescued patient group, 0-10 hr post-emergence",31.4%
same,reduction of total amount of opioid consumed vs placebo,"[6]; rescued patient group, 10-24 hr post-emergence",35%
same,pain intensity (PIs) vs placebo,"[6]; rescued patient group, significance at 4 hr (p<0.01) and 10 hr post-emergence (p<0.05), FIG. 15b",much lower
